Laboratory results from ChEMBL document CHEMBL3885881, “DrugMatrix”.

Tests used:
Rattus norvegicus [1] = organism: Rattus norvegicus; assay: DrugMatrix - Regimen: Daily Repeat; format: toxicity, organism-based, Sprague-Dawley; design: regimen Daily Repeat, gender Male, age 6-8 weeks; details: in vivo, po, 2 mg/kg, route oral GAVAGE, dose level High, vehicle 100 % WATER
Rattus norvegicus [2] = organism: Rattus norvegicus; format: toxicity, organism-based, Sprague-Dawley; details: in vivo, po, 2 mg/kg, 24 h, route oral GAVAGE, dose level High, time 1 day, vehicle 100 % WATER
Description: DrugMatrix - Regimen: Single

[3] = […], tissue Plasma, time 14 day

O=[Se]([O-])[O-].[Na+].[Na+] [SODIUM SELENITE]
URIC ACID (Rattus norvegicus [1]; 120 h, tissue Plasma, time 5 day): 0.67 mg/dL
ABSOLUTE BASOPHIL (Rattus norvegicus [1]; […], tissue Blood, time 14 day): 0 CELLS/uL
ABSOLUTE EOSINOPHIL (Rattus norvegicus [1]; […], tissue Blood, time 14 day): 217 CELLS/uL
ABSOLUTE LYMPHOCYTE (Rattus norvegicus [1]; […], tissue Blood, time 14 day): 17297 CELLS/uL
ABSOLUTE MONOCYTE (Rattus norvegicus [1]; […], tissue Blood, time 14 day): 361.6 CELLS/uL
ABSOLUTE SEGMENTED NEUTROPHIL (Rattus norvegicus [1]; […], tissue Blood, time 14 day): 2204.4 CELLS/uL
BASOPHIL (Rattus norvegicus [1]; […], tissue Blood, time 14 day): 0%
EOSINOPHIL (Rattus norvegicus [1]; […], tissue Blood, time 14 day): 1.2%
ERYTHROCYTE COUNT (Rattus norvegicus [1]; […], tissue Blood, time 14 day): 6.02 x10E6/uL
HEMATOCRIT (Rattus norvegicus [1]; […], tissue Blood, time 14 day): 35.24%
HEMOGLOBIN (Rattus norvegicus [1]; […], tissue Blood, time 14 day): 13.22 G/DL
LEUKOCYTE COUNT (Rattus norvegicus [1]; […], tissue Blood, time 14 day): 20.08 x10E3/uL
LYMPHOCYTE (Rattus norvegicus [1]; […], tissue Blood, time 14 day): 85.8%
MEAN CORPUSCULAR HEMOGLOBIN (Rattus norvegicus [1]; […], tissue Blood, time 14 day): 21.98 pg
MEAN CORPUSCULAR HEMOGLOBIN CONCENTRATION (Rattus norvegicus [1]; […], tissue Blood, time 14 day): 37.54 G/DL
MEAN CORPUSCULAR VOLUME (Rattus norvegicus [1]; […], tissue Blood, time 14 day): 58.52 fL
MONOCYTE (Rattus norvegicus [1]; […], tissue Blood, time 14 day): 1.8%
NEUTROPHIL (Rattus norvegicus [1]; […], tissue Blood, time 14 day): 11.2%
NUCLEATED RED BLOOD CELLS (Rattus norvegicus [1]; […], tissue Blood, time 14 day): 0 /100WBC
PLATELET COUNT (Rattus norvegicus [1]; […], tissue Blood, time 14 day): 1010.8 x10E3/uL
ALANINE AMINOTRANSFERASE (Rattus norvegicus [1]; [3]): 60.2 u/L
ALBUMIN (Rattus norvegicus [1]; [3]): 4.26 G/DL
ALKALINE PHOSPHATASE (Rattus norvegicus [1]; [3]): 330.2 u/L
ASPARTATE AMINOTRANSFERASE (Rattus norvegicus [1]; [3]): 119.4 u/L
BLOOD UREA NITROGEN (Rattus norvegicus [1]; [3]): 14 mg/dL
CARBON DIOXIDE (Rattus norvegicus [1]; [3]): 22.8 mmol/L
CHLORIDE (Rattus norvegicus [1]; [3]): 104.2 MEQ/L
CHOLESTEROL (Rattus norvegicus [1]; [3]): 62.8 mg/dL
CREATININE (Rattus norvegicus [1]; [3]): 0.21 mg/dL
GLUCOSE (Rattus norvegicus [1]; [3]): 199.6 mg/dL
LACTATE DEHYDROGENASE (Rattus norvegicus [1]; [3]): 281.2 u/L
LIPASE (Rattus norvegicus [1]; [3]): 8 u/L
PHOSPHORUS (Rattus norvegicus [1]; [3]): 13.28 mg/dL
POTASSIUM (Rattus norvegicus [1]; [3]): 5.95 MEQ/L
SODIUM (Rattus norvegicus [1]; [3]): 148.62 MEQ/L
TOTAL BILIRUBIN (Rattus norvegicus [1]; [3]): 0.16 mg/dL
TOTAL PROTEIN (Rattus norvegicus [1]; [3]): 6.16 G/DL
URIC ACID (Rattus norvegicus [1]; [3]): 2.08 mg/dL
ABSOLUTE EOSINOPHIL (Rattus norvegicus [2]; tissue Blood): 75.33 CELLS/uL
ABSOLUTE LYMPHOCYTE (Rattus norvegicus [2]; tissue Blood): 14511 CELLS/uL
ABSOLUTE MONOCYTE (Rattus norvegicus [2]; tissue Blood): 680 CELLS/uL
ABSOLUTE SEGMENTED NEUTROPHIL (Rattus norvegicus [2]; tissue Blood): 1733.67 CELLS/uL
BASOPHIL (Rattus norvegicus [2]; tissue Blood): 0%
EOSINOPHIL (Rattus norvegicus [2]; tissue Blood): 0.67%
ERYTHROCYTE COUNT (Rattus norvegicus [2]; tissue Blood): 5.44 x10E6/uL
HEMATOCRIT (Rattus norvegicus [2]; tissue Blood): 34.57%
HEMOGLOBIN (Rattus norvegicus [2]; tissue Blood): 12.77 G/DL
LEUKOCYTE COUNT (Rattus norvegicus [2]; tissue Blood): 17 x10E3/uL
LYMPHOCYTE (Rattus norvegicus [2]; tissue Blood): 85%
MEAN CORPUSCULAR HEMOGLOBIN (Rattus norvegicus [2]; tissue Blood): 23.53 pg
MEAN CORPUSCULAR HEMOGLOBIN CONCENTRATION (Rattus norvegicus [2]; tissue Blood): 36.97 G/DL
MEAN CORPUSCULAR VOLUME (Rattus norvegicus [2]; tissue Blood): 63.6 fL
MONOCYTE (Rattus norvegicus [2]; tissue Blood): 4%
NEUTROPHIL (Rattus norvegicus [2]; tissue Blood): 10.33%
NUCLEATED RED BLOOD CELLS (Rattus norvegicus [2]; tissue Blood): 0 /100WBC
PLATELET COUNT (Rattus norvegicus [2]; tissue Blood): 978.67 x10E3/uL
ALANINE AMINOTRANSFERASE (Rattus norvegicus [2]; tissue Plasma): 57.67 u/L
ALBUMIN (Rattus norvegicus [2]; tissue Plasma): 4.3 G/DL
ALKALINE PHOSPHATASE (Rattus norvegicus [2]; tissue Plasma): 357.67 u/L
ASPARTATE AMINOTRANSFERASE (Rattus norvegicus [2]; tissue Plasma): 80.67 u/L
BLOOD UREA NITROGEN (Rattus norvegicus [2]; tissue Plasma): 12.33 mg/dL
CARBON DIOXIDE (Rattus norvegicus [2]; tissue Plasma): 27.67 mmol/L
CHLORIDE (Rattus norvegicus [2]; tissue Plasma): 103 MEQ/L
CHOLESTEROL (Rattus norvegicus [2]; tissue Plasma): 82.67 mg/dL
CREATININE (Rattus norvegicus [2]; tissue Plasma): 0.15 mg/dL
GLUCOSE (Rattus norvegicus [2]; tissue Plasma): 177 mg/dL
LACTATE DEHYDROGENASE (Rattus norvegicus [2]; tissue Plasma): 119 u/L
LIPASE (Rattus norvegicus [2]; tissue Plasma): 7.67 u/L
PHOSPHORUS (Rattus norvegicus [2]; tissue Plasma): 13.23 mg/dL
POTASSIUM (Rattus norvegicus [2]; tissue Plasma): 6.75 MEQ/L
SODIUM (Rattus norvegicus [2]; tissue Plasma): 146.8 MEQ/L
TOTAL BILIRUBIN (Rattus norvegicus [2]; tissue Plasma): 0.2 mg/dL
TOTAL PROTEIN (Rattus norvegicus [2]; tissue Plasma): 5.73 G/DL
URIC ACID (Rattus norvegicus [2]; tissue Plasma): 2.07 mg/dL
